Experimental data as given in US7825129B2, “Thieno[2,3-c] isoquinolines for use as inhibitors of PARP” (priority 2000, dated 2010).

Tests used:
[1] = molecular target: T1, poly(ADP-ribose) polymerase (PARP) (Bos taurus, UniProt P18493); assay: Activity against purified PARP, [3H]NAD incorporation; format: biochemical; conditions: purified PARP from foetal calf thymus, 37° C., 30 mins; read-out: IC50 of PARP inhibitors tested on enzyme prepared from bovine thymus
T1 construct: purified PARP derived from foetal calf thymus; from tissue; host or cells: foetal calf thymus
T1 sequence (P18493 whole entry): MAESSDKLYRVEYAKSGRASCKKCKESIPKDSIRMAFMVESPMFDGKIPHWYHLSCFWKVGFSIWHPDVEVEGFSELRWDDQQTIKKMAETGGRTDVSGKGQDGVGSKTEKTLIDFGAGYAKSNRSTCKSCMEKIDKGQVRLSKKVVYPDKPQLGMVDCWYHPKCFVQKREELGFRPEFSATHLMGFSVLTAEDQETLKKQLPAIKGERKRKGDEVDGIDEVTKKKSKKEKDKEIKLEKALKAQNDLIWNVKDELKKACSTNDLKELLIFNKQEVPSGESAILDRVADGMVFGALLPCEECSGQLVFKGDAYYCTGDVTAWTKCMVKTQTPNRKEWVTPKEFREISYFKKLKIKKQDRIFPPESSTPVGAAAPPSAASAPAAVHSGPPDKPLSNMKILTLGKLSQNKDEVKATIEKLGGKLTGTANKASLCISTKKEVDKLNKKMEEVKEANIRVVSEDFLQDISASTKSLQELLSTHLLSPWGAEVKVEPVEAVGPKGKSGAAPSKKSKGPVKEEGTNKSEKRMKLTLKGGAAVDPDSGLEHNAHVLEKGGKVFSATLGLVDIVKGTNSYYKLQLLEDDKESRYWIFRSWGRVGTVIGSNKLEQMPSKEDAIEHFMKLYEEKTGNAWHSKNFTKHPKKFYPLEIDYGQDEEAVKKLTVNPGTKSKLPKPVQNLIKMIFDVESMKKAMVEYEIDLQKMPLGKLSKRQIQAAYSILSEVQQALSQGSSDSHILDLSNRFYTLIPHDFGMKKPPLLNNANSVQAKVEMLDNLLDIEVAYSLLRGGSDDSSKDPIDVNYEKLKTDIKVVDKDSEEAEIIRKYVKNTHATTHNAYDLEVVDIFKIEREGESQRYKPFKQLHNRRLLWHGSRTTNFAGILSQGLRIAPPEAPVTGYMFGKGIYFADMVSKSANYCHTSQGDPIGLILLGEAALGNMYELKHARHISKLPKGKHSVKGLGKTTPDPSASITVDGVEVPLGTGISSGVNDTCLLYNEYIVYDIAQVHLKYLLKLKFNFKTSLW
Method: The activity on PARP was evaluated using purified PARP derived from foetal calf thymus, as per Ito et al. (J. Biol. Chem. […]: 3647, 1979). […] The active fractions were used for the activity tests carried out as per Banasik et al. (J. Biol. Chem. 267: 1569, 1992). […] The reaction was terminated with 10% of trichloroacetic acid and the radioactivity associated with the protein was evaluated in a liquid scintillation spectrometer.

[2] = test system: primary neuronal cultures; assay: Post-ischaemic neuronal death in primary neuronal cultures exposed to oxygen and glucose deprivation; format: cell-based; conditions: read-out: IC50 for reducing post-ischaemic neuronal death
Method: (§1) 2) The biological activity was evaluated in primary neuronal cultures exposed to oxygen and glucose deprivation (see: Neuropharmacology 38: 1007-[…]) and in vivo in rats with MCA [sic]. The volume of the infarct was measured 72 hrs after the occlusion using a method described previously (Cozzi et al., J. Cerebrali Blood Flow Metabolism 19: 771-777; 1999).

[3] = test system: rats with permanent occlusion of the medial cerebral artery; assay: MCAO stroke model in rats, infarct volume; format: in vivo, rat; conditions: 3-10 mg/kg i.p., infarct volume measured 72 hrs after occlusion
Method: as §1
In this stroke model, the compound (3-10 mg/kg i.p.) reduced by 40% the volume of necrotic brain induced by the permanent occlusion of the medial cerebral artery.

IC50 [1] [nM] | melting point [°C] | SMILES | IC50 [2] [nM] | reduction of the volume of necrotic brain [3] [%]
100 | 298 to 301 | O=c1[nH]c2sccc2c2c(O)cccc12 [Example 2, 9-Hydroxythieno[2,3-c]isoquinolin-5(4H)-one] |  | 
50 | 297 to 299 | Nc1cccc2c(=O)[nH]c3sccc3c12 [Example 4, 9-Aminothieno[2,3-c]isoquinolin-5(4H)-one] |  | 
 |  | O=c1[nH]c2sccc2c2ccccc12 [Example 1, Thieno[2,3-c]isoquinolin-5(4H)-one] | ~3000 | 40
90000 |  | NC(=O)c1ccccc1 [Benzamide, reference compound] |  | 
300 | 198 to 200 | COc1cccc2c(=O)[nH]c3sccc3c12 [Example 3, 9-Methoxythieno[2,3-c]isoquinolin-5(4H)-one] |  | 
